Common to all, as to format: in vivo
Data set [1] has as its system Myzus persicae. In words: Green peach aphid (Myzus persicae), mixed life stages, systemic test via artificial diet under membrane. The following applies: for mortality at 2500 ppm: Myzus persicae, 72 h, read-out: mortality in comparison with untreated controls. How it is done: (§1) If not otherwise specified, the test solutions were prepared as follows: The active compound was dissolved at the desired concentration in a mixture of 1:1 (vol:vol) distilled water:acetone. The test solution was prepared at the day of use.
(§2) Test solutions were prepared in general at a concentration of 2500ppm (wt/vol).
B.2. Green peach aphid (Myzus persicae) (mixed life stages)
For evaluating control of Green Peach Aphid through systemic means the test unit consisted of 96-well-microtiter plates containing liquid artificial diet under an artificial membrane. The compounds were formulated using a solution containing 75% v/v water and 25% v/v DMSO. Different concentrations of formulated compounds were pipetted into the aphid diet, using a custom-built pipette, at two replications. After application, 5 - 8 adult aphids were placed on the artificial membrane inside the microtiter plate wells. The aphids were then allowed to suck on the treated aphid diet and incubated at about 23 ± 1°C and about 50 ± 5 % relative humidity for 3 days. Aphid mortality and fecundity was then visually assessed.

For data set [2], the system named is Aedes aegypti. In words: whole plant or invertebrate. Conditions: larval mortality visually assessed after 2 days; for mortality in comparison with untreated controls: 2500ppm; for mortality at 2500 ppm: Aedes aegypti, 48 h, read-out: mortality in comparison with untreated controls. How it is done:
as §1, §2
B.4. Yellow fever mosquito (Aedes aegypti)
For evaluating control of Yellow Fever Mosquito, the test unit consisted of 96-well-microtiter plates containing 200µl of tap water per well and 5-15 freshly hatched A. aegypti larvae. The active compounds were formulated using a solution containing 75% (v/v) water and 25% (v/v) DMSO. Different concentrations of formulated compounds or mixtures were sprayed onto the insect diet at 2.5µl, using a custom-built micro atomizer, at two replications.
After application, microtiter plates were incubated at 28 ± 1°C, 80 ± 5 % RH for 2 days. Larval mortality was then visually assessed.

Data set [3] has as its system Plutella xylostella. In words: Diamond back moth (Plutella xylostella), cabbage leaf disc dip test. The following applies: for mortality at 300 ppm: Plutella xylostella, foliar, read-out: mortality in comparison with untreated controls. As for the experimental part:
B.5. Diamond back moth (Plutella xylostella)
The active compound was dissolved at the desired concentration in a mixture of 1:1 (vol:vol) distilled water: acetone. Surfactant (Kinetic) was added at a rate of 0.01% (vol/vol). The test solution was prepared at the day of use. Cabbage leaf discs (60mm in diameter) were dipped in test solution and air-dried. Treated leaves were placed in petri dishes lined with moistened filter paper and inoculated with ten 3rd instar larvae. Mortality was recorded 72 hours after treatment. Feeding damages were also recorded using a scale of 0-100%.

Data set [4] concerns Spodoptera eridania. Briefly: Southern armyworm (Spodoptera eridania), 2nd instar larvae, sprayed lima bean plants. The following applies: for mortality in comparison with untreated controls: 300ppm, 2nd instar larvae, assessed 4 days after treatment; for mortality at 300 ppm: Spodoptera eridania, 96 h, read-out: mortality in comparison with untreated controls. As for the experimental part: B.7. Southern armyworm (Spodoptera eridania), 2nd instar larvae
The active compounds were formulated by a Tecan liquid handler in 100% cyclohexanone as a 10'000 ppm solution supplied in tubes. The 10'000 ppm solution was serially diluted in 100% cyclohexanone to make interim solutions. These served as stock solutions for which final dilutions were made by the Tecan in 50% acetone:50% water (v/v) into 10 or 20ml glass vials. A nonionic surfactant (Kinetic®) was included in the solution at a volume of 0.01% (v/v). The vials were then inserted into an automated electrostatic sprayer equipped with an atomizing nozzle for application to plants/insects. Lima bean plants (variety Sieva) were grown 2 plants to a pot and selected for treatment at the 1st true leaf stage. Test solutions were sprayed onto the foliage by an automated electrostatic plant sprayer equipped with an atomizing spray nozzle. The plants were dried in the sprayer fume hood and then removed from the sprayer. Each pot was placed into perforated plastic bags with a zip closure. Ten to 11 armyworm larvae were placed into the bag and the bags zipped closed. Test plants were maintained in a growth room at about 25°C and about 20-40% relative humidity for 4 days, avoiding direct exposure to fluorescent light (14:10 light:dark photo-period) to prevent trapping of heat inside the bags. Mortality and reduced feeding were assessed 4 days after treatment, compared to untreated control plants.

The subject of data set [5] is Anthonomus grandis. In words: Boll weevil (Anthonomus grandis) control, insect diet in 96-well microtiter plates. Conditions: for mortality in comparison with untreated controls: 2500ppm; for mortality at 2500 ppm: Anthonomus grandis, 120 h, read-out: mortality in comparison with untreated controls. How it is done:
as §1, §2
B.1. Boll weevil (Anthonomus grandis)
For evaluating control of boll weevil, the test unit consisted of 96-well-microtiter plates containing an insect diet and 5-10 A. grandis eggs.
The compounds were formulated using a solution containing 75% v/v water and 25% v/v DMSO. Different concentrations of formulated compounds were sprayed onto the insect diet at 5µl, using a custom-built micro atomizer, at two replications.
After application, microtiter plates were incubated at about 25 ± 1°C and about 75 ± 5 % relative humidity for 5 days. Egg and larval mortality were then visually assessed.

For data set [6], the system named is Heliothis virescens. Briefly: Tobacco budworm (Heliothis virescens) control, insect diet in 96-well microtiter plates. Conditions: for mortality at 2500 ppm: Heliothis virescens, 120 h, read-out: mortality in comparison with untreated controls. How it is done: as §1, §2
B.3. Tobacco budworm (Heliothis virescens)
For evaluating control of Tobacco Budworm, the test unit consisted of 96-well-microtiter plates containing an insect diet and 15-25 H. virescens eggs. The compounds were formulated using a solution containing 75% v/v water and 25% v/v DMSO. Different concentrations of formulated compounds were sprayed onto the insect diet at 10µl, using a custom-built micro atomizer, at two replications. After application, microtiter plates were incubated at about 28 ± 1°C and about 80 ± 5 % relative humidity for 5 days. Egg and larval mortality was then visually assessed.

Data set [7] deals with Dichromothrips corbetti. Briefly: Orchid thrips (Dichromothrips corbetti), floral-immersion technique. Conditions: for mortality at 300 ppm: Dichromothrips corbetti, read-out: mortality in comparison with untreated controls. How it is done:
B.6. Orchid thrips (Dichromothrips corbetti)
Dichromothrips corbetti adults used for bioassay were obtained from a colony maintained continuously under laboratory conditions. For testing purposes, the test compound was diluted in a 1:1 mixture of acetone:water (vol:vol), plus Kinetic at a rate of 0.01% v/v.
Thrips potency of each compound was evaluated by using a floral-immersion technique. Each orchid petal was dipped into treatment solution and allowed to dry in Petri dishes. Treated petals were placed into individual re-sealable plastic along with about 20 adult thrips. All test arenas were held under dark condition and a temperature of about 28°C for duration of the assay. The percent mortality was recorded 72 hours after treatment.

[8] abbreviates: 2500ppm, aphid mortality visually assessed after 3 days.
Setting [9] is: 300ppm, 3rd instar larvae, mortality recorded 72 hours after treatment.
The mark [10] stands for this setting: egg and larval mortality visually assessed after 5 days.
Setting [11] is: 2500ppm, egg and larval mortality visually assessed after 5 days.
Where [12] appears, read: 300ppm, adult thrips, mortality recorded 72 hours after treatment.

Where two headings read alike, the source gives them in different places.

Regarding `N#Cc1ccc(NC2=NOC(c3cc(Cl)cc(Cl)c3)(C(F)(F)F)C2)cc1-n1cncn1` (centres unmarked) [I-1], the “mortality in comparison with untreated controls” value (from here on “mortality in comparison”) in data set [1] (setting [8]), in data set [2], in data set [3] (setting [9]), in data set [4], in data set [5] (setting [10]) and in data set [6] (setting [11]) was “at least 75%” in each case. The “mortality in comparison” value in data set [7] (setting [12]) is reported as “at least 75%”.
With `N#Cc1ccc(NC2=NOC(c3cc(Cl)c(F)c(Cl)c3)(C(F)(F)F)C2)cc1-n1cncn1` (centres unmarked) [I-4, 4-[[5-(3,5-dichloro-4-fluoro-phenyl)-5-(trifluoromethyl)-4H-isoxazol-3-yl]amino]-2-(1,2,4-triazol-1-yl)benzonitrile], the mortality at 2500 ppm in data set [1], in data set [2], in data set [5] and in data set [6] was at least 75% each time. The mortality at 300 ppm in data set [3] (72 h), in data set [4] and in data set [7] (72 h) was at least 75% each time.
`N#Cc1ccc(NC2=NOC(c3cccc(C(F)(F)F)c3)(C(F)(F)F)C2)cc1-n1cncn1` (centres unmarked) [I-5]: the “mortality in comparison” value in data set [1] (setting [8]), in data set [2], in data set [3] (setting [9]), in data set [4], in data set [5] (setting [10]) and in data set [6] (setting [11]) was “at least 75%” in each case. For the same compound, the “mortality in comparison” value in data set [7] (setting [12]) was “at least 75%”.
Regarding `N#Cc1ccc(NC2=NOC(c3ccc(F)c(Cl)c3)(C(F)(F)F)C2)cc1-n1cncn1` (centres unmarked) [I-6], the “mortality in comparison” value in data set [1] (setting [8]), in data set [2], in data set [3] (setting [9]), in data set [4], in data set [5] (setting [10]) and in data set [6] (setting [11]) was “at least 75%” throughout. Moreover, in data set [7] (setting [12]), the “mortality in comparison” value is recorded as “at least 75%”.
In the case of `Fc1c(Cl)cc(C2(C(F)(F)F)CC(Nc3ccc(Cl)c(-n4cnc(C(F)(F)F)c4)c3)=NO2)cc1Cl` (centres unmarked) [I-16, N-[4-chloro-3-[4-(trifluoromethyl)imidazol-1-yl]phenyl]-5-(3,5-dichloro-4-fluoro-phenyl)-5-(trifluoromethyl)-4H-isoxazol-3-amine], the mortality at 2500 ppm in data set [1], in data set [2], in data set [5] and in data set [6] was at least 75% throughout. Besides, the mortality at 300 ppm in data set [3] (72 h) and in data set [7] (72 h) was at least 75% throughout.
Take `O=C(NCC(F)(F)F)c1cnn(-c2cc(NC3=NOC(c4cc(Cl)c(F)c(Cl)c4)(C(F)(F)F)C3)ccc2Cl)c1` (centres unmarked) [I-18, 1-[2-chloro-5-[[5-(3,5-dichloro-4-fluoro-phenyl)-5-(trifluoromethyl)-4H-isoxazol-3-yl]amino]phenyl]-N-(2,2,2-trifluoroethyl)pyrazole-4-carboxamide]: the mortality at 2500 ppm in data set [1] (setting [8]) was at least 75%; in data set [5] (2500 ppm, egg and larval mortality visually assessed after 5 days), at least 75%; in data set [6] (setting [11]), at least 75%. Also, the mortality at 300 ppm in data set [3] (setting [9]) and in data set [7] (setting [12]) was at least 75% in each case.
Regarding `CCN(C1=NOC(c2cc(Cl)c(F)c(Cl)c2)(C(F)(F)F)C1)c1ccc(C#N)c(-n2cncn2)c1` (centres unmarked) [I-20, 4-[[5-(3,5-dichloro-4-fluoro-phenyl)-5-(trifluoromethyl)-4H-isoxazol-3-yl]-ethyl-amino]-2-(1,2,4-triazol-1-yl)benzonitrile], the mortality at 2500 ppm in data set [2], in data set [5] and in data set [6] was at least 75% in each case. Further, the mortality at 300 ppm in data set [3] (72 h), in data set [4] and in data set [7] (72 h) was at least 75% each time.
For `COCN(C1=NOC(c2cc(Cl)c(F)c(Cl)c2)(C(F)(F)F)C1)c1ccc(C#N)c(-n2cncn2)c1` (centres unmarked) [I-22], the “mortality in comparison” value in data set [3] (setting [9]) and in data set [7] (setting [12]) was “at least 75%” in each case.
In the case of `CCOC(=O)N(C1=NOC(c2cc(Cl)c(F)c(Cl)c2)(C(F)(F)F)C1)c1ccc(Cl)c(-n2cnc(C(F)(F)F)c2)c1` (centres unmarked) [I-26, ethyl N-[4-chloro-3-[4-(trifluoromethyl)imidazol-1-yl]phenyl]-N-[5-(3,5-dichloro-4-fluoro-phenyl)-5-(trifluoromethyl)-4H-isoxazol-3-yl]carbamate], the mortality at 2500 ppm in data set [2], in data set [5] and in data set [6] was at least 75% in each case. Moreover, the mortality at 300 ppm in data set [3] (72 h), in data set [4] and in data set [7] (72 h) was at least 75% in each case.
As to “N-[4-chloro-3-[4-(trifluoromethyl)pyrazol-1-yl]phenyl]-5-(3,5-dichloro-4-fluoro-phenyl)-N-(methoxymethyl)-5-(trifluoromethyl)-4H-isoxazol-3-amine [I-23]”, the “mortality in comparison” value in data set [3] (setting [9]), in data set [4] and in data set [7] (setting [12]) was “at least 75%” each time.

Usually mortality stands for the share of the test organisms that died.

The values above are taken from EP4238971A1, “SUBSTITUTED ISOXAZOLINE DERIVATIVES” (BASF SE, priority 2022, dated 2023).
